{
  "source": "patent US4479951A",
  "about": "“1.4;3.6-Dianhydrohexitol nitrates substituted by purine bases, processes for their preparation and pharmaceutical compositions” (Dr. Willmar Schwabe GmbH & Co., priority 1980, dated 1984)",
  "tested_on": "mongrel cats",
  "assay": "heart-circulation effectiveness on narcotised mongrel cats, intraduodenal administration",
  "settings": "5 mg/kg intraduodenal",
  "key": {"[1]": {"settings": "printed on the 0 min line (= change 0 to 10 min)"}, "[2]": {"settings": "printed on the 10 min line (= change 0 to 30 min)"}, "[3]": {"settings": "printed on the 30 min line (= change 0 to 60 min)"}, "[4]": {"settings": "printed on the 60 min line (= change 0 to 120 min)"}},
  "protocol": "The animals were narcotised with a mixture of chloralose-urethane (1.2 g./kg. urethane+40 mg./kg. chloralose administered i.p.). They breathed spontaneously through a tracheal canula. The A. carotis sinistra was used in order to place a catheter tip monometer in the left chamber of the heart. The V. jugularis served for injection purposes. Via the A. femoralis dextra, a catheter was inserted up into the Aorta descendans and connected to a pressure recorder (Statham P 23Db). The heart frequency was recorded with a pulse frequency measurer (Firm Hugo Sachs Elektronik) from the left ventricular pressure signal. A duodenal loop was exposed by laparotomy. The substances to be tested were injected directly into the lumen.",
  "data": [
    {"smiles": "Nc1ncnc2c1ncn2[C@H]1CO[C@H]2[C@@H]1OC[C@@H]2O[N+](=O)[O-]", "note": "[1c/2c, 5-(9-Adenyl)-5-desoxy-1.4;3.6-dianhydro-L-iditol 2-nitrate]", "values": [
      {"measurement": "blood pressure", "setting": "0 min", "value": "124.2 ± 8.3", "unit": "mm. Hg"},
      {"measurement": "dp/dt", "setting": "0 min", "value": "7220 ± 611", "unit": "mm sec"},
      {"measurement": "heart frequency", "setting": "0 min", "value": "171.6 ± 6.2", "unit": "min⁻¹"},
      {"measurement": "blood pressure", "setting": "10 min", "value": "108.6 ± 8.5", "unit": "mm. Hg"},
      {"measurement": "dp/dt", "setting": "10 min", "value": "7500 ± 522", "unit": "mm sec"},
      {"measurement": "heart frequency", "setting": "10 min", "value": "180.4 ± 4.3", "unit": "min⁻¹"},
      {"measurement": "blood pressure", "setting": "30 min", "value": "107.8 ± 8.4", "unit": "mm. Hg"},
      {"measurement": "dp/dt", "setting": "30 min", "value": "6960 ± 564", "unit": "mm sec"},
      {"measurement": "heart frequency", "setting": "30 min", "value": "177.2 ± 5.4", "unit": "min⁻¹"},
      {"measurement": "blood pressure", "setting": "60 min", "value": "106.6 ± 7.8", "unit": "mm. Hg"},
      {"measurement": "dp/dt", "setting": "60 min", "value": "7100 ± 721", "unit": "mm sec"},
      {"measurement": "heart frequency", "setting": "60 min", "value": "177.6 ± 5.1", "unit": "min⁻¹"},
      {"measurement": "blood pressure", "setting": "120 min", "value": "106.2 ± 5.6", "unit": "mm. Hg"},
      {"measurement": "dp/dt", "setting": "120 min", "value": "7000 ± 1026", "unit": "mm sec"},
      {"measurement": "heart frequency", "setting": "120 min", "value": "178.8 ± 4.4", "unit": "min⁻¹"},
      {"measurement": "blood pressure Δ", "setting": "[1]", "value": -15.6, "unit": "mm. Hg"},
      {"measurement": "dp/dt Δ", "setting": "[1]", "value": "+280 mm sec"},
      {"measurement": "blood pressure Δ", "setting": "[2]", "value": -16.4, "unit": "mm. Hg"},
      {"measurement": "dp/dt Δ", "setting": "[2]", "value": -260, "unit": "mm sec"},
      {"measurement": "blood pressure Δ", "setting": "[3]", "value": -17.6, "unit": "mm. Hg"},
      {"measurement": "dp/dt Δ", "setting": "[3]", "value": -120, "unit": "mm sec"},
      {"measurement": "blood pressure Δ", "setting": "[4]", "value": -18.0, "unit": "mm. Hg"},
      {"measurement": "dp/dt Δ", "setting": "[4]", "value": -220, "unit": "mm sec"}
    ]}
  ]
}
